Data published in US8530680B2, “System and method for controlling growth of microorganisms with brominated furanones” (Syracuse University, priority 2008, dated 2013).
Entries after “also recorded” stand apart in the source; their conditions may differ.

Columns and labels:
[1] = system: Chaetomium globosum wildtype strain (CG); assay: Fungal growth on MEA plates with furanone; assay type: cell-based; parameters: key to growth on plate, CG: −: No growth was observed; +: normal growth was seen; conditions: for growth on plate, CG: 60 μg/mL, 7 days at 30° C.; for growth inhibition test, inhibitory concentration, CG: tested at 1, 5, 30, 60 μg/mL, 7 days
Protocol: (§1) This Example examines the effect of brominated furanones on the growth of fungi associated with damage to building material. Six fungal strains were the subject of these experiments; Gloeophyllum trabeum (strains GT598 and GT599), Chaetomium globosum (wildtype strain and CG572), and Trametes versicolor (strains TV7B2-59 and TV57MAD277). The species were developed on 2% Malt-Extract Agar (MEA) plates and stored inverted at 4° C. The stocks were refreshed by streaking new plates every two months.
(§2) The brominated and non-brominated furanones were added to MAE agar plates at different concentrations. The brominated furanones were dissolved in either ethanol (“EtOH”) or methanol (“MeOH”) as stock solutions, as shown in Table 5. The non-brominated furanones were purchased from Sigma (St. Louis, Mo.). The furanone stocks were stored at 4° C.
(§3) MAE agar plates containing the same amounts of ethanol/methanol were also prepared as negative controls to eliminate any solvent effects. The plates were prepared using either 90 mm or 60 mm petri dishes and were stored inverted at 4° C. until use.
(§4) Different concentrations of furanones were studied to compare their antifungal activities. The plates were inoculated with the six fungal strains using a platinum loop and were incubated upside down at 30° C. for 7 days to monitor the growth. The initial screening was performed using a single 60 μg/mL furanone concentration.

[2] = system: extracellular AI-2 activities of E. coli; assay: AI-2 bioluminescence assay (V. harveyi BB170 reporter, E. coli supernatants); assay type: cell-based; conditions: 60 μg/mL, E. coli culture 8 hours, supernatant on V. harveyi BB170
Protocol: To explore if brominated furanones have an interaction with quorum-sensing based on AI-2, a bioluminescence assay was conducted. Specifically, to examine whether the novel BFs have any inhibitory effects on universal QS signal AI-2, the bioluminescence of the reporter Vibrio harveyi (“V. harveyi”) strain BB170 was used as an indicator of AI-2 activities.
The E. coli strains RP437 [thr-1(Am) leuB6 his-4 metF159(Am) eda-50 rpsL1356 thi-1 ara-14 mtl-1 xyl-5 tonA31 tsx-78 lacY1 F-] and quorum-sensing mutant BW25113 ΔLuxS [ΔluxS::kan^r lacI^q rrnB3 ΔlacZ4787 hsdR514 Δ(araBAD)567 Δ (rhaBAD)568 rph-1] were routinely grown at 37° C. with shaking at 200 rpm in LB medium containing 10 g/L NaCl, 5 g/L yeast extract and 10 g/L tryptone. […]
The reporter strain V. harveyi BB170 was grown in AB medium at 30° C. for 16 hours. […] The subcultures were incubated at 30° C. and the bioluminescence was measured every hour as an indicator of AI-2 activity using a luminometer (Model 20/20m Turner BioSystems, Inc., Sunnyvale, Calif.). The colony-forming units (CFUs) of V. harveyi strain BB170 were counted after spreading the cell cultures on LM agar plates containing 10 g/L tryptone, 5 g/L yeast extract, 20 g/L NaCl and 15 g/L agar plates and incubating at 30° C. for 24 hours.
It was previously known that the V. harveyi BB170 strain produces luminescence in response to AI-2 but not in response to homoserine lactones (AHLs) as a result of a mutation in the AHL sensor gene. At low cell densities, the basal level of AI-2 will not trigger significant production of luminescence in V. harveyi BB170; however, at high cell densities, the extracellular AI-2 concentration will reach a certain threshold and induce the bioluminescence of V. harveyi. […]

[3] = system: Gloeophyllum trabeum strain GT598; assay: Fungal growth on MEA plates with furanone; assay type: cell-based; parameters: key to growth on plate, GT598: −: No growth was observed; +: normal growth was seen; conditions: for growth on plate, GT598: 60 μg/mL, 7 days at 30° C.; for growth inhibition test, inhibitory concentration, GT598: tested at 1, 5, 30, 60 μg/mL, 7 days
Protocol: as §1, §2, §3, §4

[4] = system: P. aeruginosa strain PAO1 biofilm formation; assay: Microplate-based biofilm assay (crystal violet, OD540) of P. aeruginosa; assay type: cell-based, Pseudomonas aeruginosa; conditions: 24 hours
Protocol: A microplate-based biofilm assay was used to further investigate whether furanones inhibit biofilm formation of P. aeruginosa strain PAO1. For this biofilm assay the strain was grown at 30° C. without shaking in M63 minimal medium containing 13.6 g/L KH2PO4, 2 g/L (NH4)2SO4, 0.5 mg/L FeSO4, 0.12 g/L MgSO4, 5 g/L vitamin free casamino acids and 5 g/L glucose (pH 7.0). The synthesis of the brominated furanones, the structures of which are shown in FIGS. 1A and 1B, was according to Example 1.
The overnight culture of P. aeruginosa was used to inoculate fresh M63 medium supplemented with furanones (0, 30 or 60 μg/mL) to an OD600 of 0.05 in 96-well plates. Four replicates were tested for each condition. The plates were incubated at 30° C. without shaking for 24 hours. The biofilm mass was quantified by following the protocol described previously. Briefly, the planktonic cells were carefully removed by pipetting and the plates with biofilms were washed three times with deionized H2O and dried by gently patting on a piece of paper towel. To quantify biofilms, the plates were stained with 0.1% crystal violet and incubated for 20 minutes at room temperature. The plates were then washed three times with deionized H2O to remove extra dyes. An OD540 was measured to quantify the biofilm on the bottom of each well.

SMILES | growth on plate, CG [1] | growth inhibition test, inhibitory concentration, CG [1] [µg/mL] | reduction of extracellular AI-2 activity [2] [%] | growth on plate, GT598 [3] | growth inhibition test, inhibitory concentration, GT598 [3] [µg/mL] | inhibition of biofilm formation ([4]; 30 μg/mL) | inhibition of biofilm formation ([4]; 60 μg/mL) | inhibition at 30 µg/mL ([4]; Pseudomonas aeruginosa, PAO1, 30 μg/mL, read-out: inhibition of biofilm formation compared to 24-hour biofilm mass of furanone-free control) [%] | inhibition at 60 µg/mL ([4]; Pseudomonas aeruginosa, PAO1, 60 μg/mL, read-out: inhibition of biofilm formation compared to 24-hour biofilm mass of furanone-free control) [%]
CC1=C(Br)/C(=C/Br)OC1=O [BF8, 4-bromo-5Z-(bromomethylene)-3-methylfuran-2-one] | − | 5 | 72.9±1.0 | − | 5 | significantly inhibited | significantly inhibited | 86.1 ± 7.6 | 93.8 ± 3.7
CCCCC1=C(Br)/C(=C/Br)OC1=O [BF1, 4-bromo-5Z-(bromomethylene)-3-butylfuran-2-one] | − | 30 |  | − | 30 |  |  |  | 
O=C1OC(=C(Br)Br)C=C1C(Br)Br [BF10, 3-(dibromomethyl)-5-(dibromomethylene)furan-2-one] | − | 30 | 31.0±5.1 | − | 30 | didn't show apparent inhibition | significantly inhibited; also recorded: inhibited biofilm formation completely |  | 
CC1=CC(=C(Br)Br)OC1=O [BF9, 5-(dibromomethylene)-3-methylfuran-2-one] | − | 5 | 42.2±0.3 | − | 60 | significantly inhibited | significantly inhibited |  | 
